Patent US5552267A, “Solution for prolonged organ preservation” (priority 1994, dated 1996)

How the values were obtained:
[1] = system: nitric oxide production in heart; assay: direct measurement of coronary vascular and endocardial NO with porphyrinic microsensor; set-up: species or system rat; conditions: transplanted hearts
Method: Direct measurement of coronary vascular and endocardial nitric oxide synthesis were made with a porphyrinic microsensor^13 using differential pulse voltammetry or amperometry. Rat hearts were explanted and preserved as described above, and studied fresh (no preservation/transplantation) or after hypothermic preservation in lactated Ringer's (LR) solution, heterotopic transplantation, and 10 minutes of reperfusion. The coronary vasculature was flushed free of blood with LR followed by 4 ml of LR supplemented with L-Arg (2 mM) and bradykinin ([…], Sigma), which was recycled (1 ml/min) through the coronary vasculature by flushing down the cross-clamped aortic root. Aliquots of perfusate were immediately transferred to an anaerobic environment for measurements and compared to an aqueous nitric oxide reference. Differential pulse voltammograms were obtained using a sensor (working electrode), saturated calomel electrode reference, and platinum wire-auxiliary electrode, with a pulse amplitude of 40 mV. Endocardial NO was measured by implanting the sensor in the septal endocardium of a freshly explanted or preserved/transplanted heart, and after the baseline stabilization, […] bradykinin was applied and NO release continuously monitored by amperometry at constant potential of 0.63 V.

[2] = system: neutrophil infiltration of lung graft; assay: lung graft myeloperoxidase assay, cGMP series; type: in vivo, rat; conditions: 6 h in EC then transplantation
Method: Thirty minutes following restoration of blood flow, transplanted lungs were excised, rinsed briskly in physiologic saline, and snap frozen in liquid nitrogen until the time of assay. These lungs were then homogenized in phosphate buffer (50 mM; pH 6.0, 5 ml/gm of tissue) containing hexadecyltrimethylammonium bromide (0.5%; HTAB, [Sigma]) and frozen at -80° C. The myeloperoxidase assay was performed, as described^32, by thawing the sample, centrifuging at 40,000 g for 15 minutes at 4° C., and decanting the supernatant, which was assayed for myeloperoxidase activity using standard chromogenic spectrophotometric technique: test sample (0.03 ml) was added to sample buffer (0.97 ml of 50 mM phosphate buffer, pH 6.0) containing O-dianisidine dihydrochloride (Sigma), hydrogen peroxide (0.006%), and change in absorbance at 460 nm was measured over 1 min (increase in OD was linear over this time interval).

[3] = system: cGMP-dependent protein kinase; conditions: vs cAMP-dependent protein kinase; cited from earlier work
[4] = system: neutrophil infiltration of cardiac graft; assay: graft myeloperoxidase activity/histology, nitric oxide series; type: in vivo, rat; conditions: 12 h; NTG 0.1 mg/ml in LR
Method: Ten minutes following restoration of blood flow, transplanted hearts were excised and the aortic root was flushed for 5 minutes (rate of 2 ml/minute controlled by roller pump) with normal saline (Baxter, Edison, N.J.), the atria and great vessels were removed, and intracavitary blood was evacuated. Remaining ventricular pieces were weighed, homogenized, and myeloperoxidase activity measured as described^10. For histologic study, cardiac graft samples were fixed in an ascending series of aldehydes, embedded, sectioned, and stained with hematoxylin and eosin.

lung = assay: orthotopic rat left lung transplantation, nitroglycerin series; type: in vivo, rat (male Lewis)
[5] = system: neutrophil accumulation in lung graft; assay: lung graft myeloperoxidase, nitroglycerin series; type: in vivo, rat; conditions: NTG 0.1 mg/mL in EC, 6 h
Method: Thirty minutes following ligation of the native right pulmonary artery, or at the time of recipient death, transplanted lungs were removed, rinsed briskly in physiologic saline, and snap frozen in liquid nitrogen until the time of myeloperoxidase or TBARs assay.
Tissue was homogenized in phosphate buffer (50 mM, pH 5.5, 5 ml/gm of tissue) containing hexadecyltrimethyl ammonium bromide (0.5%, Sigma). The assay was performed, as previously described^35, by thawing the sample, centrifuging at 40,000 g for 15 minutes, and decanting the supernatant, which was assayed for myeloperoxidase activity using a standard chromogenic spectrophotometric technique in which test sample (0.03 mL) was added to phosphate buffer (0.97 mL) containing O-dianisidinedihydrochloride (Sigma) and hydrogen peroxide (0.0005%), and change in absorbance at 460 nm was measured over 1 minute (increase in OD was linear over this time interval).

cGMP = assay: tissue cGMP levels (radioimmunoassay, unpublished); conditions: NTG in preservation solution
[6] = system: nitric oxide in expired air; conditions: in vivo; cited from earlier work
heart = conditions: in vivo; cited from earlier work
[7] = 6 h in EC, NTG 0.1 mg/mL where added

| Compound | effect on NO levels [1] | myeloperoxidase activity (dAbs 460 nm/min) [2] [dAbs 460 nm/min] | times more potent at stimulating cGMP- than cAMP-dependent protein kinase [3] [times] | neutrophil infiltration [4] | pulmonary artery flushing time (lung; 30 mL at constant pressure during harvest) [s] | recipient survival (lung; 6 h in EC, 30 min, supplements NTG 0.1 mg/mL, hydralazine 0.02 μg/mL) [%] | arterial oxygenation (lung; [7]) [mm Hg] | pulmonary arterial flow (lung; [7]) [mL/min] | pulmonary vascular resistance (lung; [7]) | concentration of maximal beneficial effect (lung; range 0.001 to 0.1 mg/mL) [mg/mL] | graft neutrophil accumulation [5] | tissue cGMP levels (cGMP) | nitric oxide in expired air [6] | effect in cardiac ischemia models (heart) |
| --- | --- | --- | --- | --- | --- | --- | --- | --- | --- | --- | --- | --- | --- | --- |
| Nc1nc2c(nc(Br)n2[C@@H]2O[C@@H]3COP(=O)(O)O[C@H]3[C@H]2O)c(=O)[nH]1 [8-Br-cGMP, 8-bromoguanosine-3'5' cyclic monophosphate] | did not alter NO levels | 1.75±0.13 | 500 | – | – | – | – | – | – | – | – | – | – | – |
| O=[N+]([O-])OCC(CO[N+](=O)[O-])O[N+](=O)[O-] [NTG, nitroglycerin] | – | – | – | marked decrease in neutrophil infiltration | 86.4 ± 4.9 | 100 | 501±31 | 21.4 ± 2.9 | 1.4±0.1 ×10^3 Woods units | 0.1 | significant decline in both neutrophil and platelet accumulation | augments tissue cGMP levels | increase nitric oxide in expired air | blunt myocardial injury and neutrophil accumulation during reperfusion |
